Results taken from DBAASP.
≈ marks a conversion by molar mass, not a printed value.

Columns and labels:
Assay in all cases: ≥ marks a high value that may be exact or a test limit, other limits are often not marked, values filed in µg/mL are converted to µM
[1] = tested on: Staphylococcus aureus NCTC 10788
[2] = tested on: Staphylococcus aureus ATCC 25923
[3] = tested on: Escherichia coli ATCC 25726
Pseudomonas aeruginosa = tested on: Pseudomonas aeruginosa
Salmonella typhimurium = tested on: Salmonella typhimurium
[4] = tested on: Escherichia coli DH5alpha
Klebsiella pneumoniae = tested on: Klebsiella pneumoniae
[5] = tested on: Micrococcus luteus ATCC 9341

| Structure (SMILES) | MIC [2] [µM] | MIC [3] [µM] | MIC (Pseudomonas aeruginosa) [µM] | MIC (Salmonella typhimurium) [µM] | MIC [4] [µM] | MIC (Klebsiella pneumoniae) [µM] | other results |
| --- | --- | --- | --- | --- | --- | --- | --- |
| CC(C)C[C@H](NC(=O)[C@H](CC(C)C)NC(=O)CNC(=O)[C@H](C)NC(=O)[C@H](CC(C)C)NC(=O)[C@H](CC(C)C)NC(=O)CNC(=O)[C@@H]1CCCN1C(=O)[C@H](CC(C)C)NC(=O)[C@@H](N)Cc1ccccc1)C(N)=O [FLPGLLAGLL] |  |  |  |  |  |  | MIC [1]: ≥ 60 µM |
| CC[C@H](C)[C@H](NC(=O)[C@H](CC(C)C)NC(=O)[C@H](Cc1cnc[nH]1)NC(=O)[C@@H]1CCCN1C(=O)[C@@H](NC(=O)[C@@H](NC(=O)[C@H](CCCCN)NC(=O)[C@H](C)NC(=O)[C@@H](NC(=O)CNC(=O)[C@H](CCCCN)NC(=O)[C@H](CC(C)C)NC(=O)CNC(=O)[C@H](CC(C)C)NC(=O)[C@H](CCCCN)NC(=O)[C@H](CC(C)C)NC(=O)[C@H](CC(C)C)NC(=O)[C@@H]1CCCN1C(=O)CNC(=O)[C@H](CC(C)C)NC(=O)[C@H](Cc1ccccc1)NC(=O)CN)C(C)C)C(C)C)[C@@H](C)CC)C(=O)N1CCC[C@H]1C(=O)N[C@@H](CO)C(=O)N[C@@H](CCCN=C(N)N)C(=O)N[C@@H](CCC(N)=O)C(=O)N[C@@H](CCC(N)=O)C(=O)O [GFLGPLLKLGLKGVAKVIPHLIPSRQQ] | 2.5 (≈ 7.2 µg/mL) | ≥ 40 |  |  |  |  |  |
| CC[C@H](C)[C@H](N)C(=O)N[C@H](C(=O)N[C@H](C(=O)N1CCC[C@H]1C(=O)N1CCC[C@H]1C(=O)N[C@H](C(=O)N[C@H](C(=O)N[C@@H](CCCCN)C(=O)N[C@@H](CC(=O)O)C(=O)N[C@H](C(=O)N[C@@H](CC(C)C)C(=O)N[C@@H](CCCCN)C(=O)N[C@@H](CCCCN)C(=O)N[C@@H](Cc1ccccc1)C(=O)N[C@H](C(=O)N[C@@H](CCCCN)C(=O)NCC(=O)N[C@@H](C)C(=O)N[C@H](C(=O)N[C@@H](CO)C(=O)NCC(=O)N[C@H](C(=O)N[C@@H](CCSC)C(N)=O)C(C)C)[C@@H](C)CC)[C@@H](C)CC)[C@@H](C)O)C(C)C)[C@@H](C)CC)[C@@H](C)CC)[C@@H](C)O [ITIPPIVKDTLKKFIKGAISGVM] | 20 (≈ 49.4 µg/mL) | ≥ 80 |  |  |  |  |  |
| NCCCC[C@H](NC(=O)[C@H](Cc1c[nH]c2ccccc12)NC(=O)[C@@H]1CCCN1)C(=O)N[C@@H](Cc1c[nH]c2ccccc12)C(=O)N1CCC[C@H]1C(=O)N[C@@H](Cc1c[nH]c2ccccc12)C(=O)N[C@@H](Cc1c[nH]c2ccccc12)C(=O)N1CCC[C@H]1C(=O)N[C@@H](Cc1c[nH]c2ccccc12)C(=O)N[C@@H](CCCN=C(N)N)C(=O)N[C@@H](CCCN=C(N)N)C(N)=O [PWKWPWWPWRR] |  |  |  |  |  |  | MIC [5]: 0.8 µM (≈ 1.34 µg/mL) |

Now from value to compound, other results behind:

| MIC [2] [µM] | MIC [3] [µM] | MIC (Pseudomonas aeruginosa) [µM] | MIC (Salmonella typhimurium) [µM] | MIC [4] [µM] | MIC (Klebsiella pneumoniae) [µM] | Structure (SMILES) | other results |
| --- | --- | --- | --- | --- | --- | --- | --- |
|  |  | 100 (≈ 185 µg/mL) | 25 (≈ 46.4 µg/mL) | 15 (≈ 27.8 µg/mL) | 25 (≈ 46.4 µg/mL) | CC[C@H](C)[C@H](N)C(=O)N[C@@H](CC(C)C)C(=O)N[C@@H](C)C(=O)N[C@@H](Cc1c[nH]c2ccccc12)C(=O)N[C@@H](CCCCN)C(=O)N[C@@H](Cc1c[nH]c2ccccc12)C(=O)N[C@@H](C)C(=O)N[C@@H](Cc1c[nH]c2ccccc12)C(=O)N[C@@H](Cc1c[nH]c2ccccc12)C(=O)N1CCC[C@H]1C(=O)N[C@@H](Cc1c[nH]c2ccccc12)C(=O)N[C@@H](CCCN=C(N)N)C(=O)N[C@@H](CCCN=C(N)N)C(N)=O [ILAWKWAWWPWRR] |  |
|  |  | 100 (≈ 185 µg/mL) | 25 (≈ 46.4 µg/mL) | 25 (≈ 46.4 µg/mL) | 50 (≈ 92.7 µg/mL) | CC[C@H](C)[C@H](N)C(=O)N[C@@H](CC(C)C)C(=O)N[C@@H](C)C(=O)N[C@@H](Cc1c[nH]c2ccccc12)C(=O)N[C@@H](CCCCN)C(=O)N[C@@H](Cc1c[nH]c2ccccc12)C(=O)N1CCC[C@H]1C(=O)N[C@@H](Cc1c[nH]c2ccccc12)C(=O)N[C@@H](Cc1c[nH]c2ccccc12)C(=O)N[C@@H](C)C(=O)N[C@@H](Cc1c[nH]c2ccccc12)C(=O)N[C@@H](CCCN=C(N)N)C(=O)N[C@@H](CCCN=C(N)N)C(N)=O [ILAWKWPWWAWRR] |  |
